The values below come from US5990094A, “Inhibitors of sorotonin N-acetyltransferase” (The Rockefeller University, priority 1998, dated 1999).

For test [1], the target named is T1, AANAT (Ovis aries, UniProt Q29495). The experiment in a line: Tryptamine analogs as AANAT substrates, steady-state kinetic parameters. As to the method: Expression of eukaryotic proteins in bacteria is unpredictable.
The enzymatic assays available for AANAT were direct, radioactive assays. […] Thus indirect methods to measure CoASH formation were tested.
The first objective of these studies was to determine the tolerance of alkyl chain length for substrate processing efficiency. […] Indole-propylamine (7.1) and indole-butylamines(7.2) are not commercially available and were prepared as shown (FIG. 7) (6l).
Another important selectivity issue was addressing the effects of a-methyl and Nw-methyl-substitutions of tryptamine analogs (FIG. 8) on AANAT catalysis. […] These compounds were obtained from commercial sources and tested as AANAT substrates. […] Using these compounds.

Test [2] deals with T1, AANAT. In words: a-Trifluoromethyltryptamine tested as AANAT substrate and competitive inhibitor. It is filed as biochemical, sheep. Also on record: The entire open reading frame of the DNA encoding sheep AANAT in the plasmid vector pET15b; GST (glutathione S-transferase, thrombin-cleavable) (N); made in house; host or cells: Escherichia coli. As to the method: Expression of eukaryotic proteins in bacteria is unpredictable. Indeed, efforts to express the rat and human AANAT protein in E. coli have so far been unsuccessful. In contrast, the sheep enzyme which is 80% identical at the amino acid level to rat and human can be expressed in E. coli as a soluble protein (51). GST-AANAT can be obtained in approximately 90% purity with a yield of 5-10 mg/L of E. coli culture after purification with glutathione-agarose. Optimization of conditions for production of this fusion protein has led to the induction being carried out at 22-24° C. for 5-6 h after 0.2 mM IPTG to prevent inclusion body formation. The fusion protein can be concentrated to>6 mg/mL using an Amicon filter and appears to be stable for at least 6 months when stored at -80° C. in the presence of a thiol-reducing agent. […] Specific activity is also highly reproducible from batch to batch. Cleavage of the fusion protein with thrombin followed by repeat glutathione-affinity chromatography has afforded GST-free AANAT.
Quantitatively, the specific activity is essentially identical to the conventional radioactive assay. Importantly, there is no evidence of significant uncoupling of CoASH production and amide formation with any substrates (or non-substrates) tested.
Commercially available bromotrifluoromethyl ketone was converted to the oxime by reaction with hydroxylamine. The oxime was used to generate the vinyl nitroso derivative which was used in situ to react in a 4+2 cycloaddition and produce the 3-substituted indole. Reduction of this material with LiAlH4 led to generation of racemic a-trifluoromethyltryptamine. a-Trifluoromethyltryptamine was calculated to have a primary amine pKa of approximately 6. […] It is not clear from these studies if the lack of tight binding of a-trifluoromethyltryptamine represents steric or electronic repulsion of the fluorines offset by the tighter binding of the neutral amine function, or if a positively charged amine is the preferred state for binding to AANAT (65).

Test [3] has as its target T2, GST-AANAT (Ovis aries, UniProt Q29495).
T2 construct: The entire open reading frame of the DNA encoding sheep AANAT in the plasmid vector pET15b; made in house; host or cells: Escherichia coli BL21(DE3)pLysS
The experiment in a line: Kinetic measurements with inhibitors of GST-AANAT. The test is classed as biochemical, sheep. Here is the method: (§1) DTNB Product Detection Assay
(§2) This assay is based on the detection of CoASH generated during acetyl transfer by reaction with the thiol reagent DTNB (19). […] Reactions were initiated with enzyme (3 μl, 5-30 nM final concentration) that had been prediluted (10-100 fold) in 50 mM sodium phosphate, 500 mM NaCl, 2 mM EDTA, and 0.05 mg/ml bovine serum albumin in the absence of reducing agent immediately before use and maintained on ice during the assay. The reactions were quenched for 0-3 min with 0.6 ml of a buffer containing guanidinium-HCl (3.2 M), sodium phosphate (0.1 M), pH 6.8. These mixtures were treated with 0.1 ml of DTNB (2 mM, 0.1 M sodium phosphate, pH 6.8, 10 mM EDTA), vortexed, and allowed to stand for 5 min before absorbance readings were performed at 412 nm (thiophenolate-quantified assuming ε=13.7×10^3 M^-1 cm^-1) (19). Background absorbances (with all components added including enzyme) were measured and subtracted from the total absorbance. […] The rate of conversion of acetyl-CoA to CoASH in the absence of amine was negligible over the course of the assay.
Kinetic Measurements with Inhibitors
.upsilon.=Vm ·S/Km (1+I/Kis) (Eq. 3) using a nonlinear least squares approach. The fixed substrate was assumed to be saturating.
.upsilon.=Vm ·S/[Km (1+I/Kis)+S(1+I/Kii)](Eq. […]
using a nonlinear least squares approach.
V=Vm ·S/[Km +S(1+I/Kii)] (Eq. 5)
The abbreviations are Kii =Ki intercept and Kis =Ki slope based on double-reciprocal plot analysis according to the nomenclature of Cleland (21). The data for individual experiments with each inhibitor versus a varied substrate were fit to all three inhibitor models. Choice of kinetic fit was based on a combination of visual inspection and comparison of S.E. values and residuals for all three inhibition types

Test [4] has as its target T1, AANAT. In words: Viscosity studies with sucrose as microviscogen. It is filed as biochemical, sheep. Also on record: The entire open reading frame of the DNA encoding sheep AANAT in the plasmid vector pET15b; GST (glutathione S-transferase, thrombin-cleavable) (N); made in house; host or cells: Escherichia coli. Particulars: for slope of kcat-control/kcat-viscogen vs. relative viscosity: kcat effect (FIG. 10); for rate-determining step: viscosity studies. From the text: An important part of enzyme mechanistic analysis is to determine which step(s) is (are) rate-determining for the enzyme reaction. After the binding of the substrates to the enzyme, there are several potential rate-determining steps, the chemical step or one of the product release steps.
Viscosity effects can be useful for distinguishing product release steps from non-diffusional steps (66). The principle of using viscosity effects to study enzyme reaction kinetics is based on the fundamental inverse relationship between microviscosity and diffusional rates. Thus a linear increase in microviscosity caused by a microviscogen such as sucrose causes a linear decrease in the diffusion of small molecules. Since little diffusion is involved in the chemical step, this step is taken as viscosity-insensitive. However, viscogenic agents (which are used at rather high concentrations) can cause non-diffusion related effects by interacting with the enzyme or substrate. Controls for these non-diffusional effects must be carried out. […] Since poor substrates in general would be expected to have reduced kcat values because the rate of their chemical steps are reduced, any viscosity effects observed would be expected to be related to non-diffusional or "artifactual" effects.

Another test has as its target GST-AANAT fusion (Ovis aries, UniProt Q29495). The experiment in a line: DTNB product detection assay, apparent substrate kinetics with GST-AANAT. Here is the method: as §1
This assay is based on the detection of CoASH generated during acetyl transfer by reaction with the thiol reagent DTNB (19). […] Reactions were initiated with enzyme (3 μl, 5-30 nM final concentration) that had been prediluted (10-100 fold) in 50 mM sodium phosphate, 500 mM NaCl, 2 mM EDTA, and 0.05 mg/ml bovine serum albumin in the absence of reducing agent immediately before use and maintained on ice during the assay. The reactions were quenched for 0-3 min with 0.6 ml of a buffer containing guanidinium-HCl (3.2 M), sodium phosphate (0.1 M), pH 6.8. […] Background absorbances (with all components added including enzyme) were measured and subtracted from the total absorbance.

The target of test [5] is T2, GST-AANAT. In words: Tryptophol tested as alternative substrate of GST-AANAT. Particulars: 1 mM tryptophol, 1 mM acetyl-CoA, up to 3 min. The test is classed as biochemical, sheep. Here is the method: as §1, §2
The structural analog to tryptamine in which the primary amine function is replaced by a hydroxyl function (tryptophol) (see FIG. 4) could theoretically be an alternative AANAT substrate.

The mark [6] stands for this setting: varied substrate acetyl-CoA, tryptamine 0.2 mM (subsaturating).
[7] abbreviates: varied substrate acetyl-CoA, tryptamine 0.2 mM, read-out: Ksi.
Where [8] appears, read: varied substrate tryptamine, acetyl-CoA 1 mM.
Where [9] appears, read: varied substrate tryptamine, acetyl-CoA 1 mM, read-out: Kis.

Structures are written as SMILES. Where “and” joins values, the source holds several entries; their conditions need not be identical. Equal values may be shown once. Entries after “also recorded” stand apart in the source; their conditions may differ. Read-outs that look alike come from different tables or passages of the source.

T2 sequence (Q29495 other isoform, or with tags, fused parts or gaps): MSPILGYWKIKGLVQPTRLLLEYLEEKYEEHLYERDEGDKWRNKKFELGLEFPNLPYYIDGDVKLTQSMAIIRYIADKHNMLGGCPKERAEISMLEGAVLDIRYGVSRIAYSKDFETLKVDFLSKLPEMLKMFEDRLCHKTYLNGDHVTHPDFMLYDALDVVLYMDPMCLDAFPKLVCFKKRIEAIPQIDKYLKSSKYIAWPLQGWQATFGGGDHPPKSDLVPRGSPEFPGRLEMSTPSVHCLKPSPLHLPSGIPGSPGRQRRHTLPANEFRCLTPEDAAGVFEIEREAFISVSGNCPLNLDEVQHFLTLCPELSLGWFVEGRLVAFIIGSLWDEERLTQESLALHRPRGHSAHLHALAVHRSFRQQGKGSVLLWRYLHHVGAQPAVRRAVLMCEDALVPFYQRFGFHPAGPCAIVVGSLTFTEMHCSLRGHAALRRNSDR
T1 sequence (Q29495 whole entry): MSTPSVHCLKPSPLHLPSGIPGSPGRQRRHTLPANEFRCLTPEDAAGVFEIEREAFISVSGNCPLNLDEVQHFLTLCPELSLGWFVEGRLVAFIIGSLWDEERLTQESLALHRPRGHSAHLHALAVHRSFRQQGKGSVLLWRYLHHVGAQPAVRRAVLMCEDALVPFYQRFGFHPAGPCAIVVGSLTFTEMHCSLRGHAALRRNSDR
GST-AANAT fusion, sequence (Q29495 whole entry, the tested form may be a part): as the sequence (Q29495 whole entry) above

With `CC(N)Cc1c[nH]c2ccccc12` (racemic) [a-methyltryptamine], at AANAT [1], the AANAT substrate result is reported as “substrates”; the “kcat and Km compared to tryptamine” value was “significantly reduced kcat and Km compared to tryptamine”.

With `NC(Cc1c[nH]c2ccccc12)C(F)(F)F` (racemic) [a-trifluoromethyltryptamine], the figures for the AANAT substrate entry on AANAT [2] and on AANAT [2] (listed as Ya-Trifluoromethyltryptamine) were “not detectably an AANAT substrate” and “not to be a substrate”, respectively. In addition, on AANAT [2] (competitive inhibitor), the Ki was determined as 3000 ± 1000 µM.

As for `CCNC(=O)CCNC(=O)[C@H](O)C(C)(C)COP(=O)(O)OP(=O)(O)OC[C@H]1O[C@@H](n2cnc3c(N)ncnc32)[C@H](O)[C@@H]1OP(=O)(O)O` [Desulfo-CoA, desulfo-CoA], the Ki at GST-AANAT [3] (quoted in discussion, read-out: K1) is 1000 µM; at GST-AANAT [3] (varied substrate acetyl-CoA, tryptamine 1 mM, read-out: Kis) it was 1020 µM and 1000 µM; on GST-AANAT [3] (varied substrate tryptamine, acetyl-CoA 0.2 mM, read-out: Kis), 1340 ± 450 µM; at GST-AANAT [3] (varied substrate tryptamine, acetyl-CoA 0.2 mM, read-out: Ksi), 1490 ± 230 µM. Besides, the “Kis relative to dissociation constant of acetyl-CoA” value on GST-AANAT [3] (saturating tryptamine) worked out at 2 fold. In addition, the Inhibitor pattern entry at GST-AANAT [3] (varied substrate acetyl-CoA, tryptamine 1 mM) is reported as “linear competitive inhibitor”; at GST-AANAT [3] (varied substrate acetyl-CoA, tryptamine 1 mM, listed as desulfo-CoA), “linear competitive”; at GST-AANAT [3] (varied substrate tryptamine, acetyl-CoA 0.2 mM), “noncompetitive inhibitor”; at GST-AANAT [3] (varied substrate tryptamine, acetyl-CoA 0.2 mM, listed as desulfo-CoA) it was “linear noncompetitive”.

As for `CC(=O)NCCc1c[nH]c2ccccc12` [N-Acetyltryptamine, N-acetyltryptamine], the Inhibitor pattern entry at GST-AANAT [3] (setting [6]) is on record as “uncompetitive”; at GST-AANAT [3] (varied substrate acetyl-CoA, tryptamine 0.2 mM (subsaturating), listed as N-acetyltryptamine) it was “uncompetitive inhibitor”; at GST-AANAT [3] (setting [8]) it was “noncompetitive”; on GST-AANAT [3] (varied substrate tryptamine, acetyl-CoA 1 mM, listed as N-acetyltryptamine) it was “noncompetitive inhibitor; also recorded: linear noncompetitive”. The Ki amounted to 331 ± 23 µM on GST-AANAT [3] (setting [7]); 205 ± 29 µM on GST-AANAT [3] (setting [9]); 916 ± 160 µM on GST-AANAT [3] (varied substrate tryptamine, acetyl-CoA 1 mM, read-out: Ksi).

Turning to `CNCCc1c[nH]c2ccccc12` [Nw-methyltryptamine], on AANAT [1], the AANAT substrate result was “substrates”; the “kcat and Km compared to tryptamine” value is “significantly reduced kcat and Km compared to tryptamine; also recorded: substantially reduced kcat compared to tryptamine”. In addition, the “slope of kcat-control/kcat-viscogen vs. relative viscosity” value at AANAT [4] (sucrose) is “+0.16±0.03”. Besides, the “slope of kcat/Km control/viscogen vs. relative viscosity” value on AANAT [4] (sucrose, kcat/Km effect) is on record as -0.14±0.03. Also, the rate-determining step entry on AANAT [4] is on record as “the chemical step is rate-determining”.

Take `NCCc1c[nH]c2ccc(O)cc12` [Serotonin, 5-hydroxytryptamine]: the “kcat(app)” value at GST-AANAT fusion (1 mM (near saturating) concentration of the fixed substrate) worked out at 34 ± 2 s⁻¹. At GST-AANAT fusion (serotonin vs tryptamine), the “kcat(app) and Km(app) compared with tryptamine” value was “nearly indistinguishable from those obtained with tryptamine”. The kcat at AANAT [1] (Table 1, tryptamine analogs) worked out at 34 ± 1 s⁻¹.

On to `NCCc1c[nH]c2ccccc12` [Tryptamine, tryptamine], for which the “slope of kcat-control/kcat-viscogen vs. relative viscosity” value on AANAT [4] (sucrose) was “+0.75±0.08”. The rate-determining step entry on AANAT [4] is recorded as “product release (or a conformational change associated with product release) is largely rate-determining”.

For `OCCc1c[nH]c2ccccc12` [Tryptophol, tryptophol], the Inhibitor pattern result on GST-AANAT [3] (setting [6]) is “uncompetitive”; on GST-AANAT [3] (varied substrate acetyl-CoA, tryptamine 0.2 mM (subsaturating), listed as trypochol), “linear uncompetitive”; at GST-AANAT [3] (varied substrate acetyl-CoA, tryptamine 0.2 mM (subsaturating), listed as tryptophol), “uncompetitive inhibitor”; at GST-AANAT [3] (setting [8]), “competitive”; on GST-AANAT [3] (varied substrate tryptamine, acetyl-CoA 1 mM, listed as tryptophol), “linear competitive inhibitor”. For the same compound, the Ki was found to be 1360 ± 120 µM on GST-AANAT [3] (setting [7]) and 680 ± 78 µM at GST-AANAT [3] (setting [9]). In addition, the “Kis relative to Kii in a noncompetitive fit” value at GST-AANAT [3] (versus acetyl-CoA) was “more than 10 times”. Moreover, the “acetyl transfer (alternative substrate)” value on GST-AANAT [5] is “prevents enzyme-catalyzed acetyl transfer; also recorded: not an alternative substrate”; at GST-AANAT [5] (listed as tryptophol) it was “no detectable transfer took place; also recorded: not a substrate”. At GST-AANAT [5], the “acetylation efficiency relative to tryptamine, fold less” value is “at least 400 fold”.
